These results are taken from patent US20180099931A1 (AbbVie S.à.r.l., priority 2016, published 2018).

As usually defined, the EC50 is the concentration needed to bring the measured effect to its halfway point.

In the assay the target is T1, F508delCFTR (Homo sapiens, UniProt P13569, DEL508-508).
T1 construct: expressed in transfected cells; host or cells: CFBE41o- human lung-derived epithelial cells (CFBE4lo-F508delCFTR-HRP), doxycycline-inducible
In words: Cell Surface Expression-Horse Radish Peroxidase (CSE-HRP) Assay.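 As to Maximum % activity (with co-corrector): co-corrector and positive control are both the same reference corrector at 2 µM.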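 As to Maximum % activity (without co-corrector): percent of the 2 µM on-plate positive control corrector response above DMSO.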 It counts as cell-based. Conditions: for Maximum % activity (with co-corrector): with co-corrector (2 μM); for Maximum % activity (with co-corrector) / Emax: maximum at any tested concentration, normalized to on-plate positive control; for Emax: without co-corrector, read-out: Maximum % activity (without co-corrector).

[1] abbreviates: test compound without co-corrector, read-out: EC50 (without co-corrector).
The mark [2] stands for this setting: with co-corrector (2 μM of 3-[(2R,4R)-4-({[1-(2,2-difluoro-1,3-benzodioxol-5-yl)cyclopropyl]carbonyl}amino)-7-methoxy-3,4-dihydro-2H-chromen-2-yl]benzoic acid), read-out: EC50 (with co-corrector).

Read-outs that look alike come from different tables or passages of the source.

T1 sequence (P13569 with tags, fused parts or gaps DEL508-508): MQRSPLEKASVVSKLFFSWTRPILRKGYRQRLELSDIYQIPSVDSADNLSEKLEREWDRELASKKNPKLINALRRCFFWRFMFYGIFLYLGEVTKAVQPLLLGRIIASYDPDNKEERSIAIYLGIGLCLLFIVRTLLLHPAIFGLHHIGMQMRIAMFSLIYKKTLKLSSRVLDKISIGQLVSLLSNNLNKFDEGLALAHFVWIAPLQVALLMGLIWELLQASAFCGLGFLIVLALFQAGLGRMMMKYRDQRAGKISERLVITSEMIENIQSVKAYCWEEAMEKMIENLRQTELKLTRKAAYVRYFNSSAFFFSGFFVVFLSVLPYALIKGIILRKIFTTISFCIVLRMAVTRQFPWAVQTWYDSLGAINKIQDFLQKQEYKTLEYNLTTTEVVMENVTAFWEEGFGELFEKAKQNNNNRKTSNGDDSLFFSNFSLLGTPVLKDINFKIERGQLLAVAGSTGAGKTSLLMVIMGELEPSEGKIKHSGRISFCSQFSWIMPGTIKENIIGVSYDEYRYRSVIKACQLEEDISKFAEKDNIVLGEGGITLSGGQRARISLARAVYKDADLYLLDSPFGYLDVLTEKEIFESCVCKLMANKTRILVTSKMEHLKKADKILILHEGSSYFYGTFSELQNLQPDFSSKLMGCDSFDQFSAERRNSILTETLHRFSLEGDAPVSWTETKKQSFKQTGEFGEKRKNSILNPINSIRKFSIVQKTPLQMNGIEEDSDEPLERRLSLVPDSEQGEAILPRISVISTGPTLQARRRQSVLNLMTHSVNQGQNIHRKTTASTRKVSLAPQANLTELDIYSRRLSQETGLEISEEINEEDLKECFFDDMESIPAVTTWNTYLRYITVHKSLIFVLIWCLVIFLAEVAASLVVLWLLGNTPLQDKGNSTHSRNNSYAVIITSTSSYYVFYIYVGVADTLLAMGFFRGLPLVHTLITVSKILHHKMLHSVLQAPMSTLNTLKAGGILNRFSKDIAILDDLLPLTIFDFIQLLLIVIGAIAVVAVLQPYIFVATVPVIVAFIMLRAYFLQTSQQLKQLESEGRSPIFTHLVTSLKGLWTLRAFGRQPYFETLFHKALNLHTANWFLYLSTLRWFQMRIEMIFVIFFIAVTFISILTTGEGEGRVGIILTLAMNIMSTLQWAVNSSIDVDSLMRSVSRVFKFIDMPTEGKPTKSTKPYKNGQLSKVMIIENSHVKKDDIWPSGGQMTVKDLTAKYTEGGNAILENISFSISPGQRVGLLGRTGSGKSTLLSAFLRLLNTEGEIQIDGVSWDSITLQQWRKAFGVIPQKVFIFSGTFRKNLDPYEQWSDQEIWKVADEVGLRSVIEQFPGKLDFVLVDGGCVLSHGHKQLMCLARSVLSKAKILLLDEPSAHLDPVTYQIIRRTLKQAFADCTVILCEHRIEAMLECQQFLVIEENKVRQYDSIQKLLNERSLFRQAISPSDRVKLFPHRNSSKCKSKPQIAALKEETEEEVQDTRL

Turning to `COc1nc(C(C)(C)C)ccc1CN[C@H]1[C@H](C(C)(C)C)[C@@H](C(=O)O)N(C(=O)[C@@H]2CCCCO2)[C@H]1c1ccccc1` [Example 38, (2S,3S,4S,5S)-3-tert-butyl-4-{[(6-tert-butyl-2-methoxypyridin-3-yl)methyl]amino}-1-[(2S)-oxane-2-carbonyl]-5-phenylpyrrolidine-2-carboxylic acid], the “Maximum % activity (with co-corrector)” value is listed as “+++ (≥350)” and the Emax was greater than 200%. Besides, the EC50 under setting [1] fell in the range of 1000 to 10000 nM. Besides, the EC50 under setting [2] was less than 1000 nM.
`COc1nc(C(C)(C)C)ccc1CN[C@H]1[C@H](C(C)(C)C)[C@@H](C(=O)O)N(C(=O)[C@H]2CCCCO2)[C@H]1c1ccccc1` [Example 39, (2S,3S,4S,5S)-3-tert-butyl-4-{[(6-tert-butyl-2-methoxypyridin-3-yl)methyl]amino}-1-[(2R)-oxane-2-carbonyl]-5-phenylpyrrolidine-2-carboxylic acid]: the “Maximum % activity (with co-corrector)” value was “+++ (≥350)” and the Emax lay within 100 to 200%. The concentration giving a half-maximal response (EC50) under setting [1] is 1000 to 10000 nM. The EC50 under setting [2] was in the range of 1000 to 10000 nM.
In the case of `COc1ccc(C(C)(C)C)cc1CN[C@H]1[C@H](C(C)(C)OC)[C@@H](C(=O)O)N(C(=O)C2CCCCC2)[C@H]1c1cccnc1OC` [Example 40, (2S,3S,4S,5S)-4-{[(5-tert-butyl-2-methoxyphenyl)methyl]amino}-1-(cyclohexanecarbonyl)-3-(2-methoxypropan-2-yl)-5-(2-methoxypyridin-3-yl)pyrrolidine-2-carboxylic acid], the “Maximum % activity (with co-corrector)” value was “+++ (≥350)” and the Emax was greater than 200%. Moreover, the EC50 under setting [1] was 1000 to 10000 nM. In addition, the EC50 under setting [2] is 1000 to 10000 nM.
With `COc1ccc(C(C)(C)C)cc1CN[C@H]1[C@H](C(C)(C)OC)[C@@H](C(=O)O)N(C(=O)C2CCCCC2)[C@H]1c1cccnc1N(C)C` [Example 41, (2S,3S,4S,5S)-4-{[(5-tert-butyl-2-methoxyphenyl)methyl]amino}-1-(cyclohexanecarbonyl)-5-[2-(dimethylamino)pyridin-3-yl]-3-(2-methoxypropan-2-yl)pyrrolidine-2-carboxylic acid], the “Maximum % activity (with co-corrector)” value is given as “+++ (≥350)” and the Emax is greater than 200%. For the same compound, the EC50 under setting [1] was in the range of 1000 to 10000 nM. The EC50 under setting [2] is less than 1000 nM.
For `COc1ccc(C(C)(C)C)cc1CN[C@H]1[C@H](C(C)(C)C)[C@@H](C(=O)O)N(C(=O)[C@H]2CCCCO2)[C@H]1c1ccccc1OC(F)F` [Example 45, (2S,3S,4S,5S)-3-tert-butyl-4-{[(5-tert-butyl-2-methoxyphenyl)methyl]amino}-5-[2-(difluoromethoxy)phenyl]-1-[(2R)-oxane-2-carbonyl]pyrrolidine-2-carboxylic acid] the same measures were “+++ (≥350)”, 100 to 200%, 1000 to 10000 nM and 1000 to 10000 nM.
For `COc1ccc(C(C)(C)C)cc1CN[C@H]1[C@H](C(C)(C)C)[C@@H](C(=O)O)N(C(=O)C2C3CCCC32)[C@H]1c1ccccc1` (stereo partly drawn) [Example 46, (2S,3S,4S,5S)-1-(bicyclo[3.1.0]hexane-6-carbonyl)-3-tert-butyl-4-{[(5-tert-butyl-2-methoxyphenyl)methyl]amino}-5-phenylpyrrolidine-2-carboxylic acid] the same measures were “+++ (≥350)”, greater than 200%, 1000 to 10000 nM and less than 1000 nM.
In the case of `COc1ncc([Si](C)(C)C)cc1CN[C@H]1[C@H](C(C)(C)C)[C@@H](C(=O)O)N(C(=O)C2CCCCC2)[C@H]1c1ccccc1` [Example 47, (2S,3S,4S,5S)-3-tert-butyl-1-(cyclohexanecarbonyl)-4-({[2-methoxy-5-(trimethylsilyl)pyridin-3-yl]methyl}amino)-5-phenylpyrrolidine-2-carboxylic acid], the EC50 under setting [1] was less than 1000 nM and the EC50 under setting [2] was less than 1000 nM.
In the case of `COc1cnc(C(C)(C)C)cc1CN[C@H]1[C@H](C(C)(C)C)[C@@H](C(=O)O)N(C(=O)C2CCCCC2)[C@H]1c1ccccc1` [Example 48, (2S,3S,4S,5S)-3-tert-butyl-4-{[(2-tert-butyl-5-methoxypyridin-4-yl)methyl]amino}-1-(cyclohexanecarbonyl)-5-phenylpyrrolidine-2-carboxylic acid], the “Maximum % activity (with co-corrector)” value is “+++ (≥350)” and the Emax was in the range of 100 to 200%. For the same compound, the EC50 under setting [1] fell in the range of 1000 to 10000 nM. Under setting [2], the EC50 is 1000 to 10000 nM.
As to `COc1ncc(C(F)(F)F)cc1CN[C@H]1[C@H](C(C)(C)C)[C@@H](C(=O)O)N(C(=O)[C@@H]2CCCC(F)(F)C2)[C@H]1c1ccccc1` [Example 49, (2S,3S,4S,5S)-3-tert-butyl-1-[(1R)-3,3-difluorocyclohexane-1-carbonyl]-4-({[2-methoxy-5-(trifluoromethyl)pyridin-3-yl]methyl}amino)-5-phenylpyrrolidine-2-carboxylic acid], the “Maximum % activity (with co-corrector)” value is “+++ (≥350)” and the Emax was greater than 200%. Besides, the EC50 under setting [1] was in the range of 1000 to 10000 nM. The EC50 under setting [2] was less than 1000 nM.
For `COc1ccc(C(C)(C)C)cc1CN[C@H]1[C@H](C(C)(C)C)[C@@H](C(=O)O)N(C(=O)[C@H]2CCCCO2)[C@H]1c1ccccc1F` [Example 50, (2S,3S,4S,5S)-3-tert-butyl-4-{[(5-tert-butyl-2-methoxyphenyl)methyl]amino}-5-(2-fluorophenyl)-1-[(2R)-oxane-2-carbonyl]pyrrolidine-2-carboxylic acid] the same measures were “+++ (≥350)”, 100 to 200%, 1000 to 10000 nM and 1000 to 10000 nM.
For `COc1ccc(C23CC(C2)C3)cc1CN[C@H]1[C@H](C(C)(C)C)[C@@H](C(=O)O)N(C(=O)[C@@H]2CCCCO2)[C@H]1c1cccnc1N(C)C` [Example 51, (2S,3S,4S,5S)-4-({[5-(bicyclo[1.1.1]pentan-1-yl)-2-methoxyphenyl]methyl}amino)-3-tert-butyl-5-[2-(dimethylamino)pyridin-3-yl]-1-[(2S)-oxane-2-carbonyl]pyrrolidine-2-carboxylic acid] the same measures were “+++ (≥350)”, greater than 200%, 1000 to 10000 nM and less than 1000 nM.
On the same counts, the results for `COc1ccc(C23CC(C2)C3)cc1CN[C@H]1[C@H](C(C)(C)C)[C@@H](C(=O)O)N(C(=O)[C@H]2CCCCO2)[C@H]1c1cccnc1N(C)C` [Example 52, (2S,3S,4S,5S)-4-({[5-(bicyclo[1.1.1]pentan-1-yl)-2-methoxyphenyl]methyl}amino)-3-tert-butyl-5-[2-(dimethylamino)pyridin-3-yl]-1-[(2R)-oxane-2-carbonyl]pyrrolidine-2-carboxylic acid] are “+++ (≥350)”, 100 to 200%, 1000 to 10000 nM and 1000 to 10000 nM.
`COc1ccc(C(C)(C)C)cc1CN[C@H]1[C@H](C(C)(C)C)[C@@H](C(=O)O)N(C(=O)C2CC(C)(C)OC(C)(C)C2)[C@H]1c1ccccc1` [Example 54, (2S,3S,4S,5S)-3-tert-butyl-4-{[(5-tert-butyl-2-methoxyphenyl)methyl]amino}-5-phenyl-1-(2,2,6,6-tetramethyloxane-4-carbonyl)pyrrolidine-2-carboxylic acid]: the “Maximum % activity (with co-corrector)” value is “+++ (≥350)” and the Emax was greater than 200%. Under setting [1], the 50% effective concentration (EC50) is 1000 to 10000 nM. Under setting [2], the EC50 is less than 1000 nM.
Turning to `COc1ncc(C(C)(C)C)cc1N[C@H]1[C@H](C(C)(C)C)[C@@H](C(=O)O)N(C(=O)C2CCCCC2)[C@H]1c1ccccc1` [Example 55, (2S,3S,4S,5S)-3-tert-butyl-4-[(5-tert-butyl-2-methoxypyridin-3-yl)amino]-1-(cyclohexanecarbonyl)-5-phenylpyrrolidine-2-carboxylic acid], the “Maximum % activity (with co-corrector)” value was “++ (≥150 and <350)”; the Emax is less than 100%. Also, the EC50 under setting [1] is 1000 to 10000 nM. The half-maximal effective concentration (EC50) under setting [2] is 1000 to 10000 nM.
For `COc1ccc(C(F)(F)F)cc1CN[C@H]1[C@H](C23CC(C2)C3)[C@@H](C(=O)O)N(C(=O)C2CCCCC2)[C@H]1c1ccccc1` [Example 56], the “Maximum % activity (with co-corrector)” value is “+++ (≥350)” and the Emax was in the range of 100 to 200%. The EC50 under setting [1] lay in the range of 1000 to 10000 nM. For the same compound, the EC50 under setting [2] was less than 1000 nM.
For `COc1ncc(C(F)(F)F)cc1CN[C@H]1[C@H](C23CC(C2)C3)[C@@H](C(=O)O)N(C(=O)C2CCCCC2)[C@H]1c1ccccc1` [Example 57, (2S,3S,4S,5S)-3-(bicyclo[1.1.1.1]pentan-1-yl)-1-(cyclohexanecarbonyl)-4-({[2-methoxy-5-(trifluoromethyl)pyridin-3-yl]methyl}amino)-5-phenylpyrrolidine-2-carboxylic acid] the same measures were “+++ (≥350)”, 100 to 200%, less than 1000 nM and less than 1000 nM.
As for `COc1ccc(C(C)(C)C)cc1CN[C@H]1[C@H](C(C)(C)C)[C@@H](C(=O)NS(C)(=O)=O)N(C(=O)C2CCCCC2)[C@H]1c1ccccc1` [Example 58, (2S,3S,4S,5S)-3-tert-butyl-4-{[(5-tert-butyl-2-methoxyphenyl)methyl]amino}-1-(cyclohexanecarbonyl)-N-(methanesulfonyl)-5-phenylpyrrolidine-2-carboxamide], the “Maximum % activity (with co-corrector)” value is “++ (≥150 and <350)”; the Emax is less than 100%. In addition, under setting [1], the EC50 lay within 1000 to 10000 nM. Besides, the EC50 under setting [2] is 1000 to 10000 nM.
